# Measurements reported in patent publication US10023615B2, “Efficient transport into white blood cells” (priority 2008, dated 2018).
# Entries after “also recorded” stand apart in the source; their conditions may differ. Ends that are not written are not given here.
# Test system: bleomycin induced lung inflammation
# Assay: Bleomycin (BLM) induced acute lung inflammation
# Assay type: in vivo, C57BL/6 mice
# Conditions: for cell recruitment in bronchoalveolar lavage space: single dose, 1 day
# Source text: In order to determine the activity of the exemplary all-D retro-inverso IB(s) peptide XG-102 (SEQ ID NO: 233) in the treatment of Chronic Obstructive Pulmonary Disease (COPD) XG-102 (SEQ ID NO: 233) is used in an animal model of Bleomycin induced acute lung inflammation and fibrosis. The protocol of bleomycin induced inflammation and fibrosis has been described before in the literature. The aim of the Experiment was to investigate the effect of XG-102 (SEQ ID NO: 233) by subcutaneous (s.c.) route on neutrophil recruitment in broncho alveolar lavage (BAL) and lung in bleomycin induced inflammation and fibrosis: • at 1 day after a single bleomycin administration (10 mg/kg) • and at day 10 with the development of fibrosis
# 1) Method and Experimental Approach • The test compound XG-102 (SEQ ID NO: 233) at two doses and vehicle control were given s.c. with a single intranasal administration of bleomycin and mice were analyzed after 1 and 10 days. The animals used in the model were 10 C57BL/6 mice (8 weeks old) per group. The experimental groups included vehicle, 0.001 mg/kg XG-102 (SEQ ID NO: 233) and 0.1 mg/kg XG-102 (SEQ ID NO: 233), and the treatment consisted of repeated sub-cutaneous administration of XG-102 (SEQ ID NO: 233), prior to bleomycin administration then every 3 days. Acute lung inflammation at 24 h was monitored by BAL lavage, cytology, cell counts, and lung myeloperoxidase activity. The effect of the compound was compared with vehicle controls. Lung fibrosis was assessed histologically using hematoxylin and eosin staining at day 10 after the single dose of bleomycin.
# 1.1) Bleomycin Administration • Bleomycin sulfate in saline (10 mg/kg body weight) from Bellon Laboratories (Montrouge, France) or saline were given through the airways by nasal instillation in a volume of 40 μL under light ketamine-xylasine anesthesia. The groups for Bleomycin administration for both bleomycin induced inflammation and fibrosis included: Vehicle, 0.001 mg/kg XG-102 (SEQ ID NO: 233) and 0.1 mg/kg XG-102 (SEQ ID NO: 233). The route for bleomycin induced inflammation was subcutaneous (s.c.) route, and administration occurred as a single dose. The route for bleomycin induced fibrosis was subcutaneous (s.c.) route, and administration occurred 3 times in 10 days.
# 1.2) Bronchoalveolar Lavage Fluid (BALE) • After incision of the trachea, a plastic cannula was inserted and airspaces were washed using 0.3 ml of PBS solution, heated to 37° C. The samples collected were dispatched in 2 fractions: the first one (1 ml corresponding to the 2 first lavages) was used for mediator measurement and the second one for the cell determination (4 ml). The first fraction was centrifuged (600 g for 10 min) and supernatant was fractionated and kept at −80° C. until mediator determination. The cell pellet was then resuspended in 0.4 ml sterile NaCl, 0,9%, and pooled with the second fraction and was used for cell counts.
# 1.3) Lung Homogenization • After BAL the whole lung was removed and placed inside a microtube (Lysing matrix D, Q Bio Gene, Illkrich, France) with 1 ml of PBS, total lung tissue extract was prepared using a Fastprep® system (FP120, Q Bio Gene, Illkrich, France), the extract was then centrifuged and the supernatant stored at −80° C. before mediator measurement and collagen assay with Sircol Collagen Assay (France Biochem Division, France).
# 1.4) Cell Count and Determination • Total cell count was determined in BAL fluid using a Malassez hemocytometer. Differential cell counts were performed on cytospin preparations (Cytospin 3, Thermo Shandon) after staining with MGG Diff-quick (Dade Behring AG). Differential cell counts were made on 200 cells using standard morphological criteria.
# 1.5) TNF Measurement • TNF level in BALF was determined using ELISA assay kits (Mouse DuoSet, R&D system, Minneapolis, USA) according to manufacturer's instructions. Results are reported as pg/ml. […]
substance,measurement,setting,value
dqsrpvqpflnIttprkprpprrrqrrkkrg (DQSRPVQPFLNLTTPRKPRPPRRRQRRKKRG; not fully specified (some residues); printed as dqsrpvqpflnIttprkprpprrrqrrkkrg) [XG-102],cell recruitment in bronchoalveolar lavage space,0.001 mg/kg s.c.,has no effect on neutrophil recruitment or other cell types into the bronchoalveolar space
same,cell recruitment in bronchoalveolar lavage space,0.1 mg/kg s.c.,reduces significantly the neutrophil recruitment and the number of total cells recruited; also recorded: decreases the neutrophil and total cell recruitment into the bronchoalveolar space
same,MPO levels in the lung,MPO not significantly induced after bleomycin,no effect on MPO levels in the lung; also recorded: no effect on the MPO levels in the lung
same,TNF level in BALF,TNF levels very low after BLM,a trend to reduction of the TNF level in BALF; also recorded: induces a trend to decrease the TNF level
same,Bleomycin-induced inflammation (conclusion),"mouse, in vivo",reduces the Bleomycin-induced inflammation
same,histology: inflammatory cell accumulation,peribronchial space,a decrease of the inflammatory cell accumulation in the peribronchial space
